Legend:
Ras farnesyl transferase = target: T1, Ras farnesyl transferase (Homo sapiens, UniProt P49354+P49356); assay: Ras farnesyl transferase inhibiting activity (filter-binding, tritium-farnesylpyrophosphate, Ras-CVLS substrate); assay type: biochemical; conditions: recombinant Ras farnesyl transferase, 30 minutes at 37° C., read-out: Ftase IC50
T1 construct: made in house
Procedure: The enzyme reaction was performed in 50 μl of 50 mM Sodium HEPES buffer solution containing 25 mmol of potassium chloride. 25 mmol of magnesium chloride, 10 mmol of DTT and 50 μmol of zinc chloride. 1.5 μmol of Ras substrate protein, 0.15 μmol of tritium-farnesylpyrophosphate and 4.5 nmol of farnesyl transferase were used.
More specifically, in the initial step, farnesyl transferase was added to the above buffer solution, reaction was maintained for 30 minutes at 37° C. and then the reaction was stopped by adding 1 ml of ethanol solution containing 1M HCl. The formed precipitates were adsorbed to GF/B filter using Hopper harvestor(Hopper #225V) for filter-binding, washed with ethanol, and then radioactivity of the dried filter was measured using LKB β counter. Enzyme titer was measured in the unsaturated state of substrate where the concentrations of Ras substrate protein and farnesyl transferase have quantitative relationship. Enzyme inhibiting activity was measured using less than 5% of total reaction solution of the compound according to the present invention dissolved in dimethylsulfoxide(DMSO) solution as a reagent. Enzyme inhibiting activity was represented by percentage of the amount of the farnesyl incorporated with the reagent to that without the reagent.

[1] = target: T2, Geranylgeranyl transferase (Bos taurus, UniProt P29702+Q5EAD5); assay: Geranylgeranyl transferase inhibiting activity (geranylgeranyl pyrophosphate, Ras-CVIL substrate); assay type: biochemical; conditions: geranylgeranyl transferase purified from bovine brain, read-out: GGtase IC50
T2 construct: Geranylgeranyl transferase was purified from bovine brain; from tissue; host or cells: bovine brain
Procedure: To evaluate the selective enzyme inhibiting activity of the compound according to the present invention, inhibiting activity on geranylgeranyl transferase was measured. Geranylgeranyl transferase was purified from bovine brain with the method modified from Schber's method(Schber et al., J. Biol. Chem. 1990, 265, 14701). and substantially the same experiment as that of farnesyl transferase was performed using geranylgeranyl pyrophosphate and Ras-CVIL substrate protein under the similar condition to farnesyl transferase reaction.

[2] = system: intracellular Ras farnesyl transferase, Rat2 cell line; assay: Intracellular Ras farnesyl transferase inhibiting activity in transformed Rat2 cells (35S-methionine labelling, Y13-259 immunoprecipitation, SDS-PAGE); assay type: cell-based; conditions: Rattus norvegicus; transformed Rat2 fibroblast cell line; concentration inhibiting 50% of farnesyl binding of Ras protein; read-out: Ftase CIC50
Procedure: In the present experiment, Rat2 cell line which expresses C-Harvey-Ras protein having transforming activity and Rat2 cell line(Korean patent application No. 97-14409) which is transformed with fused protein of H-Ras substituted with polybasic lysine domain at C-terminus of K-Ras were used. The experiment was performed by the modified Declue's method(Declue. J. E. et al., Cancer Research, 1991. 51, 712). Hereinafter, the experimental method will be described in more detail.
3×10^5 cells of transformed Rat2 fibroblast cell line were sprayed on 60 mm cell cultivation dish and cultivated for 48 hours in a cell incubator at 37° C. and after 50% or more of density was reached, it was treated with a reagent. The compound according to the present invention dissolved in dimethylsulfoxide(DMSO) was used as the reagent. 1% of dimethylsulfoxide was used in both control and experimental groups. After 4 hours from the treatment of the reagent, methionine labeled with 150 μCi of radioactive isotope, ^35S per 1 ml of medium, was added and after cultivating for 20 hours, the cells were washed with physiological saline water. The cells were lysed using 1 ml of cool cell lysis buffer solution(50 mM of Sodium Herpiss buffer solution containing 5 mmol of magnesium chloride. 1 mmol of DTT, 1% NP 40, 1 mmol of EDTA, 1 mmol of PMSF, 2 μmol of leupeptin, 2 μmol of pepstatin A and 2 μmol of antipain) and the supernatant was obtained by high-velocity centrifugation of 12,000 g×5 minutes. The amount of the labeled radioisotope of the supernatent was measured and standardized to obtain a quantitative result in immunoprecipitation reaction and then. Y13-259, monoclonal antiboby specifically binding to Ras protein(Furth, M. E. et al., J. Virol, 1982, 43, 294) was added and reacted for 15 hours at 4° C. Protein A bound to goat anti-murine Immunoglobulin antibody-agarose suspension was added to the solution and reacted for 1 hour at 4° C. and then, to remove unspecific binding product, immunoprecipitates were washed with buffer solution(50 mM Tris chloride buffer solution containing 50 mmol of sodium chloride, 0.5% of sodium dioxycolate, 0.5% of NP 40 and 0.1% of SDS). The precipitates were boiled in reagent buffer solution for electrophoresis and then, electrophoresis was performed using 13.5% of SDS polyacrylamide gel. After electrophoresis, the gel was fixed and dried. Then, the gel was exposed to X-ray film, developed and printed. From the result of the experiment, intensities of band of protein with and without farnesyl of Ras protein were measured, and the concentration of reagent inhibiting 50% of farnesyl binding was defined as CIC50, an intracellular Ras farnesyl transferase inhibiting activity.

Row | SMILES | IC50 (Ras farnesyl transferase) | IC50 [1] | IC50 [2]
1 | COc1ccc(C(=O)N2C(=O)N(CCCn3ccnc3)C(=O)C2(C)c2cccc3ccccc23)cc1 (stereo not drawn) [Compound 64, 3-(3-imidazol-1-yl-propyl)-1-(4-methoxy-benzoyl)-5-methyl-5-naphthalen-1-yl-imidazolidin-2,4-dione] | 0.7 µM | > 10 µM | < 20 µM
2 | CN1C(=O)N(Cc2cncn2Cc2ccc(C#N)cc2)C(=O)C1(C)c1cccc2ccccc12 (stereo not drawn) [Compound 60, 4-[5-(3-methyl-4-methyl-4-naphthalen-1-yl-2,5-dioxo-imidazolidin-1-ylmethyl)-imidazol-1-ylmethyl]-benzonitrile] | 0.16 µM | > 10 µM | < 20 µM
3 | COC(=O)c1ccc(CN2C(=O)N(CCCn3ccnc3)C(=O)C2(C)c2cccc3ccccc23)cc1 (stereo not drawn) [Compound 38, 4-[3-(3-imidazol-1-yl-propyl)-5-methyl-5-naphthalen-1-yl-2,4-dioxo-imidazolidin-1-ylmethyl]-benzoic acid methyl ester] | 0.25 µM | > 10 µM | < 20 µM
4 | O=C1CN(c2cccc3ccccc23)C(=O)N1CCCn1ccnc1 [Compound 87, 3-(3-imidazol-1-yl-propyl)-1-naphthalen-1-yl-imidazolidin-2,4-dione] | 5 µM | > 10 µM | > 50 µM
5 | CN1CCN(C(=O)C[C@H]2C(=O)N(Cc3cncn3Cc3ccc(C#N)cc3)C(=O)N2Cc2cccc3ccccc23)CC1 [Compound 84, 4-((5S)-{4-[2-(4-methyl-piperazin-1-yl)-2-oxo-ethyl]-3-naphthalen-1-ylmethyl-2,5-dioxo-imidazolidin-1-ylmethyl}-imidazol-1-ylmethyl)-benzonitrile] | 0.12 µM | > 10 µM | < 20 µM
6 | CC1(c2cccc3ccccc23)C(=O)N(CCCc2cncn2Cc2ccc(C#N)cc2)C(=O)N1C(=O)c1ccco1 (stereo not drawn) [Compound 56, 4-(5-{3-[3-(furan-2-carbonyl)-4-methyl-4-naphthalen-1-yl-2,5-dioxo-imidazolidin-1-yl]-propyl}-imidazol-1-ylmethyl)-benzonitrile] | 0.08 µM | > 10 µM | < 20 µM
7 | CSCc1ccc(CN2C(=O)N(CCCn3ccnc3)C(=O)C2(C)c2cccc3ccccc23)cc1 (stereo not drawn) [Compound 27, 3-(3-imidazol-1-yl-propyl)-1-(4-methylsulfanylmethyl-benzyl)-5-methyl-5-naphthalen-1-yl-imidazolidin-2,4-dione] | 0.21 µM | > 10 µM | < 20 µM
8 | CC1(c2cccc3ccccc23)C(=O)N(CCCc2cncn2Cc2ccc(C#N)cc2)C(=O)N1CC(=O)O (stereo not drawn) [Compound 52, (3-{3-[3-(4-cyanobenzyl)-3H-imidazol-4-yl]-propyl}-5-methyl-5-naphthalen-1-yl-2,4-dioxo-imidazolidin-1-yl)-acetic acid] | 0.019 µM | > 10 µM | < 20 µM
9 | CC1(c2cccc3ccccc23)C(=O)N(CCCn2ccnc2)C(=O)N1C(=O)N1CCOCC1 (stereo not drawn) [Compound 65, 3-(3-imidazol-1-yl-propyl)-5methyl-1-(morpholine-4-carbonyl)-5-naphthalen-1-yl-imidazolidin-2,4-dione] | 4.5 µM | > 10 µM | < 20 µM
10 | CCOC(=O)CN1C(=O)N(CCCc2cncn2Cc2ccc(Br)cc2)C(=O)C1(C)c1cccc2ccccc12 (stereo not drawn) [Compound 70, (3-{3-[3-(4-bromo-benzyl)-3H-imidazol-4-yl]-propyl}-5-methyl-5-naphthalen-1-yl-2,4-dioxo-imidazolidin-1-yl)-acetic acid ethyl ester] | 5 µM | > 10 µM | < 20 µM

More lines, in order of falling IC50 (Ras farnesyl transferase), values ahead:

Row | IC50 (Ras farnesyl transferase) | IC50 [1] | SMILES | IC50 [2]
11 | 4 µM | > 10 µM | O=C(OCc1ccccc1)N1CCC(Cn2cncc2CN2C(=O)CN(c3cccc4ccccc34)C2=O)CC1 [Compound 74, 4-[5-(3-naphthalen-1-yl-2,5-dioxo-imidazolidin-1-ylmethyl)-imidazol-1-ylmethyl]-piperidine-1-carboxylic acid benzyl ester] | < 50 µM
12 | 2.1 µM | > 10 µM | CC1(c2cccc3ccccc23)C(=O)N(CCCn2ccnc2)C(=O)N1Cc1ccc(CN)cc1 (stereo not drawn) [Compound 34, 1-(4-aminomethyl-benzyl)-3-(3-imidazol-1-yl-propyl)-5-methyl-5-naphthalen-1-yl-imidazolidin-2,4-dione] | < 20 µM
13 | 0.7 µM | > 10 µM | CSc1ccc(CN2C(=O)N(CCCn3ccnc3)C(=O)C2(C)c2cccc3ccccc23)cc1 (stereo not drawn) [Compound 26, 3-(3-imidazol-1-yl-propyl)-1-(4-methylsulfanyl-benzyl)-5-methyl-5-naphthalen-1-yl-imidazolidin-2,4-dione] | < 20 µM
14 | 0.53 µM | > 10 µM | COCCNC(=O)c1ccc(CN2C(=O)N(CCCn3ccnc3)C(=O)C2(C)c2cccc3ccccc23)cc1 (stereo not drawn) [Compound 41, 4-[3-(3-imidazol-1-yl-propyl)-5-methyl-5-naphthalen-1-yl-2,4-dioxo-imidazolidin-1-ylmethyl]-N-(2-methoxy-ethyl)-benzamide] | < 20 µM
15 | 0.2 µM | > 10 µM | CC1(c2cccc3ccccc23)C(=O)N(CCCn2ccnc2)C(=O)N1Cc1ccc(C(=O)O)cc1 (stereo not drawn) [Compound 39, 4-[3-(3-imidazol-1-yl-propyl)-5-methyl-5-naphthalen-1-yl-2,4-dioxo-imidazolidin-1-ylmethyl]-benzoic acid] | < 20 µM
16 | 0.055 µM | > 10 µM | COCCOCN1C(=O)N(CCCc2cncn2Cc2ccc(C#N)cc2)C(=O)C1(C)c1cccc2ccccc12 (stereo not drawn) [Compound 50, 4-(5-{3-[3-(2-methoxy-ethoxymethyl)-4-methyl-4-naphthalen-1-yl-2,5-dioxo-imidazolidin-1-yl]-propyl}-imidazol-1-ylmethyl)-benzonitrile] | < 20 µM
17 | 0.04 µM | > 10 µM | COC(=O)C[C@H]1C(=O)N(Cc2cncn2Cc2ccc(C#N)cc2)C(=O)N1Cc1cccc2ccccc12 [Compound 79, {1-[3-(4-cyano-benzyl)-3H-imidazol-4-ylmethyl]-3-naphthalen-1-ylmethyl-2,5-dioxo-imidazolidin-(4S)-yl}-acetic acid methyl ester] | < 10 µM
18 | 0.02 µM | > 10 µM | N#Cc1ccc(Cn2cncc2CN2C(=O)CN(c3cccc4ccccc34)C2=O)cc1 [Compound 72, 4-[5-(3-naphthaten-1-yl-2,5-dioxo-imidazolidin-1-ylmethyl)-imidazol-1-ylmethyl]-benzonitrile] | < 20 µM
19 | 0.015 µM | 80 µM | CC1(c2cccc3ccccc23)C(=O)N(CCCc2cnc[nH]2)C(=O)N1CC(=O)NC(Cc1cccs1)C(=O)O (stereo not drawn) [Compound 9, 2-(2-{3-[3-(3H-imidazol-4-yl)-propyl]-5-methyl-5-naphthalen-1-yl-2,4-dioxo-imidazolidin-1-yl}-acetamino)-3-thiophen-2-yl-propionic acid] | < 1 µM

Source: patent publication US6384061B1, “Hydantoin compounds and methods related thereto” (LG Chemical Ltd., priority 2000, dated 2002)
